Experimental data taken from patent publication US4279915A, “Method of treatment using new leurosine derivatives” (priority 1973, dated 1981).

What was measured:
lymphomas = experiment: effect of F-leurosine on lymphomas in patients (Table II); format: in vivo, human
Description: Both of Hodgkin patients belonged to the poor risk category.
EFFECT OF F-LEUROSINE ON LYMPHOMAS

leukaemias = experiment: effect of F-leurosine on leukaemias in patients (Table I); format: in vivo, human; settings: for haematological effect: schedule C
leukemia = experiment: Phase I trial, escalation and evaluation period; format: in vivo, human; settings: up to 0.05 mg/kg/day i.v. six consecutive days, escalation period
Protocol: Fourteen patients were treated. The patient selection met the following criteria: (a) all types of leukemia, (b) all patients previously treated without success, (e) no X-ray or chemotherapy was administered four weeks prior to therapy, (d) at least eight weeks follow-up. In the escalation period 0.01 mg/kg/day i.v. was given five consecutive days as initial dose.
DOSAGE OF F-LEUROSINE IN PHASE I TRIAL
In addition, eight patients were added to the group treated on the basis of this schedule.

Novikoff = experiment: antitumor effect on Novikoff ascitic tumor; format: in vivo
Description: |EFFECT OF F-LEUROSINE ON ASCITIC TUMORS

Yoshida ascites sarcoma = experiment: antitumor effect on Yoshida ascites sarcoma; format: in vivo
Description: (§1) The treatment extends the life span of animals suffering from L-1210 lymphoid leukemia, s37 ascites sarcoma or Yoshida ascites sarcoma by about 150 to 250 percent.
(§2) EFFECT OF F-LEUROSINE ON ASCITIC TUMORS

[1] = tested on: Ehrlich ascites carcinoma; experiment: antitumor effect on Ehrlich ascites carcinoma; format: in vivo, mice
Description: This compound provides complete recovery or a 300 percent extension of life span in 50 to 70 percent of the cases, in tests on mice inoculated with Ehrlich ascites carcinoma or NK/Ly lymphoma.
as §2

L 1210 leukemia = experiment: effect on L 1210 i.p. leukemia; format: in vivo, BDF1 mice
Description: as §1
L 1210 I.P. LEUKEMIA ON BDF1 MICE

VX-2 rabbit epitheloma = experiment: growth inhibition of VX-2 rabbit epitheloma; format: in vivo
[2] = 4 × 3.0 mg/kg i.p. each other day
[3] = 4 × 0.6 mg/kg i.p. each other day
[4] = 8 × 2.5 mg/kg i.p. 48 hr interval
[5] = 8 × 2.5 mg/kg i.p. 72 hr interval
[6] = 8 × 5.0 mg/kg i.p. 48 hr interval
[7] = 8 × 5.0 mg/kg i.p. 72 hr interval
[8] = 8 × 5.0 mg/kg i.p. 96 hr interval
[9] = 8 × 7.5 mg/kg i.p. 72 hr interval
[10] = 8 × 7.5 mg/kg i.p. 96 hr interval
[11] = 8 × 10.0 mg/kg i.p. 48 hr interval
[12] = 8 × 10.0 mg/kg i.p. 72 hr interval
[13] = 8 × 10.0 mg/kg i.p. 96 hr interval

CCC12CN3CCc4c([nH]c5ccccc45)[C@@](C(=O)OC)(c4cc5c(cc4OC)N(C=O)[C@H]4[C@@](O)(C(=O)OC)[C@H](OC(C)=O)[C@]6(CC)C=CCN7CC[C@]54[C@@H]76)C[C@@H](C3)C1O2 (stereo partly drawn) [N-formyl-leurosine]
X-ray picture of the chest, atelectasia in lower region of right lung (lymphomas; Hodgkin patient four, before vs after treatment): undoubted improvement
response (lymphomas; lymphosarcoma patient eight, poor risk): non-responding
palpable lymph nodes (lymphomas; lymphosarcoma patient five, after second course): all but one of the palpable lymph nodes disappeared
Westergren value after treatment (lymphomas; lymphosarcoma patient five, 75 mm/hour before the treatment): 12 mm/h
remission (lymphomas; lymphosarcoma patient three): moderate remission
change in mediastinal pathologic lymph nodes' size and intensity (lymphomas; lymphosarcoma patient two): not spectacular, but definite
palpable lymph nodes (lymphomas; lymphosarcoma patient two): The majority of their palpable lymph nodes disappeared
effect (lymphomas; patient five, course I, Lysc., schedule A): IR>50%
effect (lymphomas; patient five, course II, Lysc., schedule B): IR<50%
effect (lymphomas; patient nine, Hodgkin SC., schedule C): IR<50%
effect (lymphomas; patient one, Rsc., schedule C): IR<50%
effect (lymphomas; patient three, Lysc., schedule A): IR<50%
effect (lymphomas; patient two, Lysc., schedule C): IR>50%
sensitivity to treatment (lymphomas; poor risk Hodgkin patient four): proved to be sensitive
improvement after therapy (lymphomas; two reticulosarcoma patients, some lymph nodes diminished, softer, more mobile): one showed a moderate improvement after therapy
clinical improvement parallel with the haematological one (leukaemias; ALL and AML patients): observed only in the case of the ALL patient
duration of complete haematological remission (leukaemias; ALL patient): 2 months
outcome after treatment (leukaemias; AML patient): died one month after the end of the treatment
time to relapse after finishing treatment (leukaemias; AML patient, relapse untreatable because of serious thrombopenia and bleeding): 14 days
splenomegaly (leukaemias; CLL, first case): splenomegaly diminished
enlargement of pathological lymph nodes (leukaemias; CLL, second case (T. B.)): became less pronounced
lymph nodes and spleen volume (leukaemias; CLL, third case): both the lymph nodes and the spleen increased in volume
clinical improvement (leukaemias; chronic lymphocytic leukaemia): some clinical improvement was achieved in all the 3 CLL patients
haematological remission (leukaemias; chronic lymphocytic leukaemia): no haematological remission could be induced
complete haematological remission (leukaemias; four cases of acute leukaemia, one ALL, one AML): Complete haematological remission was achieved in two cases
haematological effect (leukaemias; patient seven, AMoL): IR>50%
haematological effect (leukaemias; patient six, AUL): IR>50%
antitumor activity (leukemia): striking antitumor activity
signs of toxicity (leukemia): without signs of toxicity
Survival (Novikoff; [2]): 196
Tumor free (Novikoff; [2]): 1/6
Survival (Novikoff; 6 × 2.0 mg/kg i.p. daily): 166
Tumor free (Novikoff; 6 × 2.0 mg/kg i.p. daily): 0/6
Survival (Yoshida ascites sarcoma; 9 × 0.5 mg/kg i.p. daily): 143
Tumor free (Yoshida ascites sarcoma; 9 × 0.5 mg/kg i.p. daily): 0/6
Survival (Yoshida ascites sarcoma; 9 × 1.0 mg/kg i.p. daily): 173
Tumor free (Yoshida ascites sarcoma; 9 × 1.0 mg/kg i.p. daily): 2/6
Survival (Yoshida ascites sarcoma; 9 × 2.0 mg/kg i.p. daily): 243
Tumor free (Yoshida ascites sarcoma; 9 × 2.0 mg/kg i.p. daily): 4/6
extension of life span (Yoshida ascites sarcoma; Yoshida ascites sarcoma, about): 150-250%
extension of life span [1]: 300%
Survival [1, 3]: 288
Tumor free [1, 3]: 7/10
Survival ([1]; 7 × 3.0 mg/kg i.p. daily): 244
Tumor free ([1]; 7 × 3.0 mg/kg i.p. daily): 3/10
Survival ([1]; 24 × 0.15 mg/kg i.p. daily): 118
Tumor free ([1]; 24 × 0.15 mg/kg i.p. daily): 3/10
Mean survival (L 1210 leukemia; 8 × 1.25 mg/kg i.p. daily): 27.7 days
Survival (L 1210 leukemia; 8 × 1.25 mg/kg i.p. daily): 131
Mean survival (L 1210 leukemia; [4]): 22.4 days
Survival (L 1210 leukemia; [4]): 137
Mean survival (L 1210 leukemia; [5]): 12.0 days
Survival (L 1210 leukemia; [5]): 48
Mean survival (L 1210 leukemia; 8 × 2.5 mg/kg i.p. daily): 25.0 days
Survival (L 1210 leukemia; 8 × 2.5 mg/kg i.p. daily): 127
Mean survival (L 1210 leukemia; [6]): 24.0 days
Survival (L 1210 leukemia; [6]): 126
Mean survival (L 1210 leukemia; [7]): 22.1 days
Survival (L 1210 leukemia; [7]): 123
Mean survival (L 1210 leukemia; [8]): 10.8 days
Survival (L 1210 leukemia; [8]): 35
Mean survival (L 1210 leukemia; 8 × 5.0 mg/kg i.p. daily): 23.0 days
Survival (L 1210 leukemia; 8 × 5.0 mg/kg i.p. daily): 109
Mean survival (L 1210 leukemia; [9]): 20.2 days
Survival (L 1210 leukemia; [9]): 117
Mean survival (L 1210 leukemia; [10]): 19.2 days
Survival (L 1210 leukemia; [10]): 95
Mean survival (L 1210 leukemia; 8 × 7.5 mg/kg i.p. daily): 19.5 days
toxicity mark in Survival column (L 1210 leukemia; 8 × 7.5 mg/kg i.p. daily): tox
Survival (L 1210 leukemia; 8 × 7.5 mg/kg i.p. daily, tox): 56
Mean survival (L 1210 leukemia; [11]): 21.7 days
toxicity mark in Survival column (L 1210 leukemia; [11]): tox
Survival (L 1210 leukemia; 8 × 10.0 mg/kg i.p. 48 hr interval, tox): 60
Mean survival (L 1210 leukemia; [12]): 22.3 days
Survival (L 1210 leukemia; [12]): 145
Mean survival (L 1210 leukemia; [13]): 23.6 days
Survival (L 1210 leukemia; [13]): 136
potency of small daily doses vs high doses twice weekly (L 1210 leukemia; BDF1 mice): equally potent
sensitivity of L-1210 leukemia to the treatment (L 1210 leukemia; BDF1 mice): sensitive to the treatment
extension of life span (L 1210 leukemia; L-1210 lymphoid leukemia, about): 150-250%
growth inhibition (VX-2 rabbit epitheloma): remarkable growth inhibition
